Data taken from PMC10495264 (Nature Cell Biology, 2023).
Several values for one entry are separate records, joined by “and”; a condition that tells them apart may be missing. Equal entries are not always repeated.

What was measured:
TORC1 = molecular target: T1, TORC1 (Saccharomyces cerevisiae, UniProt P35169); assay: MST binding affinity assays with fluorescent TORC1 (GFP–Tor1)
T1 construct: made in house; host or cells: S. cerevisiae strain NIC005 ([RL170-2c] LEU2:GFP-TOR1)
Experimental: The MST experiments were performed using a Monolith NT.115 (Nanotemper Technologies). Purification of TORC1 containing the N-terminally GFP-tagged Tor1 subunit was carried out as described previously. For the protein–protein interaction experiments, GFP–Tor1-containing TORC1 (7.5 nM) was mixed with a series of twofold dilutions (a total of 16 samples) of Acc1 (highest concentration, 80 nM) or Fas1 (highest concentration, 20 nM) purified from yeast through TAP-tag immuno-enrichment with rabbit IgG-coated magnetic beads and subsequent TEV cleavage in elution buffer (50 mM HEPES NaOH pH 7.5 and 150 mM NaCl) for 1 h at 18 °C. The samples were loaded into Monolith NT.115 capillaries and MST measurements were performed using 80% laser power and medium MST power setting at 30 °C. For the small molecule–protein interaction experiments, GFP–Tor1-containing TORC1 (7.5 nM) was mixed with a series of twofold dilutions (a total of 16 samples) of Mal-CoA (M4263, Sigma-Aldrich; highest concentration, 5 mM) dissolved in 50 mM HEPES pH 7.5. The samples were loaded into Monolith NT.115 capillaries and MST measurements were performed using 80% laser power and medium MST power setting at 30 °C. The experiments were performed in triplicate and data were fitted using the Kd model of the MO.Affinity Analysis software (Nanotemper Technologies). The signal-to-noise ratio represents the response amplitude divided by the noise of the measurement. The Kd value was obtained by plotting the bound fraction against the log-transformed ligand concentration.

mTORC1 [1] = molecular target: T2, mTORC1 (Homo sapiens, UniProt P42345); assay: Mammalian mTORC1 kinase activity assays (IVK, 4E-BP1 substrate); format: biochemical
T2 construct: endogenous mTORC1 complexes were purified from HEK293FT cells; endogenous in cells; host or cells: HEK293FT (immunoprecipitation of endogenous mTOR); the 4E-BP1 substrate was made in E. coli BL21 RP
Experimental: Following the last wash step with CHAPS IP wash buffer, the beads were washed once with kinase wash buffer (25 mM HEPES pH 7.4 and 20 mM KCl) and excess liquid was removed using a Hamilton syringe—the final bead volume was approximately 10 μl. Kinase reactions were prepared by adding 10 μl of 3×kinase assay buffer (75 mM HEPES KOH pH 7.4, 60 mM KCl and 30 mM MgCl2) to the beads. […] The reactions were incubated at 30 °C for 30 min, and stopped by the addition of one volume of 2×SDS loading buffer and boiling (5 min, 95 °C). […] Signals were quantified using the gel analysis tool of ImageJ and are shown as the phospho-4E-BP1^T37/46/4E-BP1 ratio.

yeast cells = assay: Drop spot growth assays on rapamycin and/or cerulenin plates; format: cell-based, Saccharomyces cerevisiae; details: low / sublethal doses combined
Experimental: Yeast cells (Saccharomyces cerevisiae) were cultured in liquid SC medium (1.7 g l^−1 yeast nitrogen base (cat. no. 1545, CONDA), 5 g l^−1 ammonium sulfate (cat. no. 4808211, MP Biomedicals), 20 g l^−1 glucose (cat. no. 1422, AppliChem), 2 g l^−1 amino acid dropout –His (D9520, US Biological) and 35 mg l^−1 histidine (A1341, AppliChem) at 30 °C to the exponential growth phase, unless otherwise stated in the figure legends. All yeast strains used in this study are listed in Supplementary Table 1.

TORC2 = TORC2 activity in yeast cells, p-Ypk1^T662/Ypk1 immunoblot; format: cell-based, Saccharomyces cerevisiae; details: cerulenin 20 μM, 2 h; for p-Ypk1(T662)/Ypk1, Mean: wt Ctrl = 1, Fig. 3f
mTORC1 [2] = assay: mTORC1 activity in MCF-7 cells, p-S6K^T389/S6K immunoblot; format: cell-based, human; details: cerulenin 50 μM 2 or 4 h
[3] = system: Tor1 and Fas1 malonylation; assay: Malonylation of immunopurified HA-Tor1 and Fas1-HA (anti-Mal-K) from yeast cells; format: cell-based, Saccharomyces cerevisiae
Experimental: For the yeast co-immunoprecipitations experiments, cells were collected by filtration and immediately frozen in liquid nitrogen. […] Total cell extracts were recovered from the beads and cleared by centrifugation. At this stage, samples were taken for input analysis and denatured with a Laemmli-based sample buffer (350 mM Tris–HCl pH 6.8, 30% glycerol, 600 mM DTT, 10% SDS and 0.2 mg ml^−1 bromophenol blue). The cleared lysates (10–20 mg) were incubated for 2 h at 4 °C with magnetic beads pre-conjugated with anti-HA (cat. no. 88837, Pierce). The beads were then washed five times with high salt lysis buffer (50 mM Tris–HCl pH 7.5, 300 mM NaCl, 10% glycerol and 0.1% Nonidet P40) and eventually resuspended in 20 μl lysis buffer and 20 μl 2×Laemmli buffer.

T1 sequence (P35169 whole entry): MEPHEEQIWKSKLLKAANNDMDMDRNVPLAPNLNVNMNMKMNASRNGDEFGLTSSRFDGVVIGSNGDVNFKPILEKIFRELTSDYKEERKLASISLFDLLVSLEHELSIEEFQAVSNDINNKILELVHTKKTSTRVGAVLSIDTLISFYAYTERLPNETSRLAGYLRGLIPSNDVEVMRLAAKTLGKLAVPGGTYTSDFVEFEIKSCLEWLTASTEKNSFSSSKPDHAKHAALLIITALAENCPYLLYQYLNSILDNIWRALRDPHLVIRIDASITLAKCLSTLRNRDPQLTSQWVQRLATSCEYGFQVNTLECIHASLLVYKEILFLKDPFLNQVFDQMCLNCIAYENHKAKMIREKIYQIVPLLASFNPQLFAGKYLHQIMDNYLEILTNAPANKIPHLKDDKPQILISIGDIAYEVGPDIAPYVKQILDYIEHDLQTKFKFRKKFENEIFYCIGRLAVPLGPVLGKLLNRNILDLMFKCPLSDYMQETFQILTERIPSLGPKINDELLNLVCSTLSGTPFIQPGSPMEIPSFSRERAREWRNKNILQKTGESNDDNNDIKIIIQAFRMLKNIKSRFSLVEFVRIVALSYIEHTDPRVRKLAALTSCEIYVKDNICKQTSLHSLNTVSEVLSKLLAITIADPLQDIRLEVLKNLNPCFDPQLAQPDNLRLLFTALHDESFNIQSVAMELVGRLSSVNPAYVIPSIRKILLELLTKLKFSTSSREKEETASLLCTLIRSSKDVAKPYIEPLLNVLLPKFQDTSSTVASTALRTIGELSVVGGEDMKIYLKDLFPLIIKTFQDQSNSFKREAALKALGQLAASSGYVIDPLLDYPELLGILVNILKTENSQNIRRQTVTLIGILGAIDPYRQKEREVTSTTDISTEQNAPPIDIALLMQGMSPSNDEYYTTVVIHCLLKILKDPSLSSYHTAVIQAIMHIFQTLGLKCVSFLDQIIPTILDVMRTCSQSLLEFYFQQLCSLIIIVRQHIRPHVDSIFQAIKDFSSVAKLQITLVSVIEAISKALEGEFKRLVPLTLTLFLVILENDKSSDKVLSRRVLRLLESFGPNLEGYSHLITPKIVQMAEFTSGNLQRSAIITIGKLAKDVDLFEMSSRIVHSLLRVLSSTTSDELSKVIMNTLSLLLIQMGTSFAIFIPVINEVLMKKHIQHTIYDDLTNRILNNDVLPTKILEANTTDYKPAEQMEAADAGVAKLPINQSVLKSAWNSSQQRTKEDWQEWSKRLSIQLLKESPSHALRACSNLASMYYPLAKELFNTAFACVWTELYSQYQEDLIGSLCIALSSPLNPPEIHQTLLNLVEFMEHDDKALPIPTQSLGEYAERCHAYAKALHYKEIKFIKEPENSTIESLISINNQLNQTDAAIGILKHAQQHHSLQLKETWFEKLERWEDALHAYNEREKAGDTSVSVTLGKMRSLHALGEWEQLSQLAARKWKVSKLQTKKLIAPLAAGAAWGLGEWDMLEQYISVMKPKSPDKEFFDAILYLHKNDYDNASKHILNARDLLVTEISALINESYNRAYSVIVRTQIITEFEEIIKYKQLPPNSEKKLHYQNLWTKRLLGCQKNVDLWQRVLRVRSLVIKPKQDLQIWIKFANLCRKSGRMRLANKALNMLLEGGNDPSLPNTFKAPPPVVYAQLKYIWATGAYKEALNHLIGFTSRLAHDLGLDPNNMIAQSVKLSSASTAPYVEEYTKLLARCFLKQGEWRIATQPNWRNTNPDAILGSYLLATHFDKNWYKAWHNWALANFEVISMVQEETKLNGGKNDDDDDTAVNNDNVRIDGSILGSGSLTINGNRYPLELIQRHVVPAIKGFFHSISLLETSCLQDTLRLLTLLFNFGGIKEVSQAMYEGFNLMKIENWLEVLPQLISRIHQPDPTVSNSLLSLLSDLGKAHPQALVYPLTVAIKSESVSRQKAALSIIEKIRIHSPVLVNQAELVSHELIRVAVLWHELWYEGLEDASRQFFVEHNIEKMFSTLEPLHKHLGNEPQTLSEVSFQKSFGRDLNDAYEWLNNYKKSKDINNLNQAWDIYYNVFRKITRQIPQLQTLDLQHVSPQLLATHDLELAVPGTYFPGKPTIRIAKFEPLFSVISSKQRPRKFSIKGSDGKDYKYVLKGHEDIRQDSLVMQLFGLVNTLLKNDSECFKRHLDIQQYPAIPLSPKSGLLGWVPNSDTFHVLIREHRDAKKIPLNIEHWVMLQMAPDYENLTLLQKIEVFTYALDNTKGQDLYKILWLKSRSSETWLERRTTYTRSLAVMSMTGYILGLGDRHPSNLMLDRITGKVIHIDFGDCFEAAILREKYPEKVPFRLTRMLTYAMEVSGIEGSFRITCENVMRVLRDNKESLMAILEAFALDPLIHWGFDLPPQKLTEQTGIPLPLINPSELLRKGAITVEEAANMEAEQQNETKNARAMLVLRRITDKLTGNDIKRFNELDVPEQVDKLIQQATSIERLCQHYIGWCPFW
T1 sequence (Q08921 whole entry partner): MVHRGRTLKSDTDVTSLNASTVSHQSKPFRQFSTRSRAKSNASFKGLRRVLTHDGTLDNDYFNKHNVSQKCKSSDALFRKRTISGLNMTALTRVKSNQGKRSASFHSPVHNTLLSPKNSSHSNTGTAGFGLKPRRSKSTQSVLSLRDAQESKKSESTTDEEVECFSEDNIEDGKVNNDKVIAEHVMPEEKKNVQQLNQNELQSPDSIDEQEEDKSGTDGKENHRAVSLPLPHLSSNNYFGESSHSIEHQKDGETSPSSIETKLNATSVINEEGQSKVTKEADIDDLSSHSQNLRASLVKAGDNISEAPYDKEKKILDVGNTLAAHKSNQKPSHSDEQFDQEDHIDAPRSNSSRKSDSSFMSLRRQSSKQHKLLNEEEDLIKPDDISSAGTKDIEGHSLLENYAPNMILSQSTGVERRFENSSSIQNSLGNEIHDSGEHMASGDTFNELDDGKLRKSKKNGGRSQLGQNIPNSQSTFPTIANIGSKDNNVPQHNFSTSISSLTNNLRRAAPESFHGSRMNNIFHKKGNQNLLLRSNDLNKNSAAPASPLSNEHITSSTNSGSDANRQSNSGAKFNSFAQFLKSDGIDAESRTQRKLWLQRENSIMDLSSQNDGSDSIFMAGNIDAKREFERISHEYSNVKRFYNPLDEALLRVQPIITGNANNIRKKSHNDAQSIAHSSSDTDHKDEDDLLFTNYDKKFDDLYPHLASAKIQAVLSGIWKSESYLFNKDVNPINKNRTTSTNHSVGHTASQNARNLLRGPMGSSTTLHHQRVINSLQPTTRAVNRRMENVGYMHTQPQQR
T1 sequence (P38873 whole entry partner): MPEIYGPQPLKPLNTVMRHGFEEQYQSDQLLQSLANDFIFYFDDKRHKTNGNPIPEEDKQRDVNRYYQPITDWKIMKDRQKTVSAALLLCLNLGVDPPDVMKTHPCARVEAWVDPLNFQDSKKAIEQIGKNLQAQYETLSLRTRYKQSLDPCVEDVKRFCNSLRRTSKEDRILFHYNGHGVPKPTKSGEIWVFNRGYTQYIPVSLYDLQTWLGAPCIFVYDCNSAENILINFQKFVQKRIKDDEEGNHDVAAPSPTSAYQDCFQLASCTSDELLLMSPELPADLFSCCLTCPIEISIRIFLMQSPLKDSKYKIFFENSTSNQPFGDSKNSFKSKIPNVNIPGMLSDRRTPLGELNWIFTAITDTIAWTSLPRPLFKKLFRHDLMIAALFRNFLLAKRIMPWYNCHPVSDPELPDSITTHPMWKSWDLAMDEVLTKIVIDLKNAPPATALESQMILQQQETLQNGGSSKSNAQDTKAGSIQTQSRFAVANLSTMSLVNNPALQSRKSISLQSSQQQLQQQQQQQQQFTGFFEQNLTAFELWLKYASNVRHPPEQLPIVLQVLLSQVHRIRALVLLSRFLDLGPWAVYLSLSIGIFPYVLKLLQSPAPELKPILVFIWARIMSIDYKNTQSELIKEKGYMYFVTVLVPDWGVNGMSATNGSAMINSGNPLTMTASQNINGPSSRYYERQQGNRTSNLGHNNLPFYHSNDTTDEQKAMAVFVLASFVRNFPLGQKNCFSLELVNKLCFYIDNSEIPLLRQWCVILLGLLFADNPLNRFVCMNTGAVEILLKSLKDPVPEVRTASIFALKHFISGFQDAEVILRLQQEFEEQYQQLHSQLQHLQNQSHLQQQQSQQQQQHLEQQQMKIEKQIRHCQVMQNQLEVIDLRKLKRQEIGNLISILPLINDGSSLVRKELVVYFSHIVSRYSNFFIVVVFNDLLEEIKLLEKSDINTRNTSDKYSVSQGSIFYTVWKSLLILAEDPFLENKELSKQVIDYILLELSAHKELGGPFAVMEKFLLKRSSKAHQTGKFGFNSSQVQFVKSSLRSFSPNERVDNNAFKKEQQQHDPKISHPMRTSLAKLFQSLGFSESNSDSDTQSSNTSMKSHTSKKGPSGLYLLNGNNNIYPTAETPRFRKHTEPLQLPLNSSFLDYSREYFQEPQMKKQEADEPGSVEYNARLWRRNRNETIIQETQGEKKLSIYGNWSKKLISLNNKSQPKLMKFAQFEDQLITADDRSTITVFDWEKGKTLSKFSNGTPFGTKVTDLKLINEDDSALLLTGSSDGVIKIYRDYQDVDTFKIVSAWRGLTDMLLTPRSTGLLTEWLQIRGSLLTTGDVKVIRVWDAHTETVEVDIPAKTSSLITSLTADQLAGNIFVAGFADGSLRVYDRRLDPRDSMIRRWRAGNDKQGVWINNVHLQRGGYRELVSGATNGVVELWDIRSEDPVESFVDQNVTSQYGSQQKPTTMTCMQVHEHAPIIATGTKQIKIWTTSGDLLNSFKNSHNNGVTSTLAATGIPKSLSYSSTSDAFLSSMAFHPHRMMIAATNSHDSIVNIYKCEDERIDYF
T1 sequence (P41318 whole entry partner): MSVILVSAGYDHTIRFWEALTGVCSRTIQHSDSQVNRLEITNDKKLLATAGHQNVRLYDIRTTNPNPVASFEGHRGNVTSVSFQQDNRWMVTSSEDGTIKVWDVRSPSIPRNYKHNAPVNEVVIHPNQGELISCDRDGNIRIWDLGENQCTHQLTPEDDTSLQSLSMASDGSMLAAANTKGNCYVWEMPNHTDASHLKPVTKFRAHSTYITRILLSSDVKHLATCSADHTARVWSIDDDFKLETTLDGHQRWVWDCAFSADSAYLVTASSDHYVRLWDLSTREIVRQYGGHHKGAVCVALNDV

CC(C)(COP(=O)(O)OP(=O)(O)OCC1OC(n2cnc3c(N)ncnc32)C(O)C1OP(=O)(O)O)C(O)C(=O)NCCC(=O)NCCSC(=O)CC(=O)O (stereo not shown) [Mal-CoA, malonyl-CoA]
Fraction bound transformed (TORC1; Mal-CoA 1.52588e-7 M): -0.1669 | Mean Fnorm (TORC1; Mal-CoA 1.52588e-7 M): 842.758 ‰ | Fnorm (TORC1; Mal-CoA 1.52588e-7 M, Replicates 1-3 (ED Fig. 10a)): 842.278 ‰ and 840.902 ‰ and 845.093 ‰ | Fraction bound transformed (TORC1; Mal-CoA 3.05176e-7 M): 0.1808 | Mean Fnorm (TORC1; Mal-CoA 3.05176e-7 M): 838.674 ‰ | Fnorm (TORC1; Mal-CoA 3.05176e-7 M, Replicates 1-2 (ED Fig. 10a)): 836.322 ‰ and 841.026 ‰ | Fraction bound transformed (TORC1; Mal-CoA 6.10352e-7 M): -0.2372 | Mean Fnorm (TORC1; Mal-CoA 6.10352e-7 M): 843.583 ‰ | Fnorm (TORC1; Mal-CoA 6.10352e-7 M, Replicates 1-3 (ED Fig. 10a)): 840.469 ‰ and 846.42 ‰ and 843.86 ‰ | Fraction bound transformed (TORC1; Mal-CoA 1.2207e-6 M): 0.2149 | Mean Fnorm (TORC1; Mal-CoA 1.2207e-6 M): 838.273 ‰ | Fnorm (TORC1; Mal-CoA 1.2207e-6 M, Replicates 1-3 (ED Fig. 10a)): 837.823 ‰ and 838.78 ‰ and 838.217 ‰ | Fraction bound transformed (TORC1; Mal-CoA 2.44141e-6 M): 0.1801 | Mean Fnorm (TORC1; Mal-CoA 2.44141e-6 M): 838.682 ‰ | Fnorm (TORC1; Mal-CoA 2.44141e-6 M, Replicates 1-3 (ED Fig. 10a)): 839.959 ‰ and 836.5 ‰ and 839.586 ‰ | Fraction bound transformed (TORC1; Mal-CoA 4.88281e-6 M): 0.2862 | Mean Fnorm (TORC1; Mal-CoA 4.88281e-6 M): 837.436 ‰ | Fnorm (TORC1; Mal-CoA 4.88281e-6 M, Replicates 1-3 (ED Fig. 10a)): 839.798 ‰ and 836.387 ‰ and 836.122 ‰ | Fraction bound transformed (TORC1; Mal-CoA 9.76563e-6 M): 0.3923 | Mean Fnorm (TORC1; Mal-CoA 9.76563e-6 M): 836.19 ‰ | Fnorm (TORC1; Mal-CoA 9.76563e-6 M, Replicates 1-3 (ED Fig. 10a)): 834.741 ‰ and 836.18 ‰ and 837.648 ‰ | Fraction bound transformed (TORC1; Mal-CoA 1.95313e-5 M): 0.495 | Mean Fnorm (TORC1; Mal-CoA 1.95313e-5 M): 834.984 ‰ | Fnorm (TORC1; Mal-CoA 1.95313e-5 M, Replicates 1-3 (ED Fig. 10a)): 835.416 ‰ and 833.302 ‰ and 836.235 ‰ | Fraction bound transformed (TORC1; Mal-CoA 3.90625e-5 M): 0.697 | Mean Fnorm (TORC1; Mal-CoA 3.90625e-5 M): 832.611 ‰ | Fnorm (TORC1; Mal-CoA 3.90625e-5 M, Replicates 1-3 (ED Fig. 10a)): 833.941 ‰ and 832.342 ‰ and 831.55 ‰ | Fraction bound transformed (TORC1; Mal-CoA 7.8125e-5 M): 0.721 | Mean Fnorm (TORC1; Mal-CoA 7.8125e-5 M): 832.33 ‰ | Fnorm (TORC1; Mal-CoA 7.8125e-5 M, Replicates 2-3 (ED Fig. 10a)): 830.576 ‰ and 834.083 ‰ | Fraction bound transformed (TORC1; Mal-CoA 0.00015625 M): 0.6458 | Mean Fnorm (TORC1; Mal-CoA 0.00015625 M): 833.212 ‰ | Fnorm (TORC1; Mal-CoA 0.00015625 M, Replicates 1-3 (ED Fig. 10a)): 833.177 ‰ and 832.509 ‰ and 833.951 ‰ | Fraction bound transformed (TORC1; Mal-CoA 0.0003125 M): 0.8154 | Mean Fnorm (TORC1; Mal-CoA 0.0003125 M): 831.221 ‰ | Fnorm (TORC1; Mal-CoA 0.0003125 M, Replicates 1-3 (ED Fig. 10a)): 828.879 ‰ and 833.898 ‰ and 830.884 ‰ | Fraction bound transformed (TORC1; Mal-CoA 0.00125 M): 0.8761 | Mean Fnorm (TORC1; Mal-CoA 0.00125 M): 830.508 ‰ | Fnorm (TORC1; Mal-CoA 0.00125 M, Replicates 1-3 (ED Fig. 10a)): 830.373 ‰ and 829.245 ‰ and 831.906 ‰ | Fraction bound transformed (TORC1; Mal-CoA 0.0025 M): 1.1671 | Mean Fnorm (TORC1; Mal-CoA 0.0025 M): 827.09 ‰ | Fnorm (TORC1; Mal-CoA 0.0025 M, Replicates 1-3 (ED Fig. 10a)): 828.614 ‰ and 826.728 ‰ and 825.93 ‰ | Fraction bound transformed (TORC1; Mal-CoA 0.005 M): 1.112 | Mean Fnorm (TORC1; Mal-CoA 0.005 M): 827.742 ‰ | Fnorm (TORC1; Mal-CoA 0.005 M, Replicates 1-3 (ED Fig. 10a)): 831.215 ‰ and 831.366 ‰ and 820.645 ‰ | Fraction bound transformed (TORC1; Mal-CoA […]): 1.135 | Mean Fnorm (TORC1; Mal-CoA […]): 827.462 ‰ | Kd (TORC1; purified yeast TORC1 (GFP–Tor1) 7.5 nM, 30 °C, mean ± s.d., n = 3, read-out: Kd (binding of Mal-CoA to TORC1, MST)): 19.3 µM | IC50 (mTORC1 [1]): 230 µM | In vitro mTORC1 assay, p-4E-BP1(T37/46)/4E-BP1, Mean (mTORC1 [1]; Fig. 8f, compound 0.01 mM, relative to 0 mM): 0.741 | In vitro mTORC1 assay, p-4E-BP1(T37/46)/4E-BP1, Mean (mTORC1 [1]; Fig. 8f, compound 0.05 mM, relative to 0 mM): 0.7667 | In vitro mTORC1 assay, p-4E-BP1(T37/46)/4E-BP1, Mean (mTORC1 [1]; Fig. 8f, compound 0.1 mM, relative to 0 mM): 0.821 | In vitro mTORC1 assay, p-4E-BP1(T37/46)/4E-BP1, Mean (mTORC1 [1]; Fig. 8f, compound 0.5 mM, relative to 0 mM): 0.5457 | In vitro mTORC1 assay, p-4E-BP1(T37/46)/4E-BP1, Mean (mTORC1 [1]; Fig. 8f, compound 1 mM, relative to 0 mM): 0.5376 | In vitro mTORC1 assay, p-4E-BP1(T37/46)/4E-BP1, Mean (mTORC1 [1]; Fig. 8f, compound 2.5 mM, relative to 0 mM): 0.4196 | In vitro mTORC1 assay, p-4E-BP1(T37/46)/4E-BP1, Mean (mTORC1 [1]; Fig. 8f, compound 5 mM, relative to 0 mM): 0.4175 | In vitro mTORC1 assay, p-4E-BP1(T37/46)/4E-BP1, Mean (mTORC1 [1]; Fig. 8j, Mal-CoA 2 mM, ATP 0 uM, relative to control at 500 uM ATP): 0.1107 | In vitro mTORC1 assay, p-4E-BP1(T37/46)/4E-BP1, Mean (mTORC1 [1]; Fig. 8j, Mal-CoA 2 mM, ATP 25 uM, relative to control at 500 uM ATP): 0.133 | In vitro mTORC1 assay, p-4E-BP1(T37/46)/4E-BP1, Mean (mTORC1 [1]; Fig. 8j, Mal-CoA 2 mM, ATP 100 uM, relative to control at 500 uM ATP): 0.267 | In vitro mTORC1 assay, p-4E-BP1(T37/46)/4E-BP1, Mean (mTORC1 [1]; Fig. 8j, Mal-CoA 2 mM, ATP 500 uM, relative to control at 500 uM ATP): 0.681 | In vitro mTORC1 assay, p-4E-BP1(T37/46)/4E-BP1, Mean (mTORC1 [1]; Fig. 8j, Mal-CoA 2 mM, ATP 2000 uM, relative to control at 500 uM ATP): 1.021 | In vitro mTORC1 assay, p-4E-BP1(T37/46)/4E-BP1, Mean (mTORC1 [1]; Fig. 8j, Mal-CoA 2 mM, ATP 5000 uM, relative to control at 500 uM ATP): 1.149 | Ki (mTORC1 [1]; read-out: Ki (ATP-competitive, human mTORC1)): 770 µM

C/C=C/C/C=C/CCC(=O)[C@H]1O[C@H]1C(N)=O [cerulenin]
combined effect of rapamycin and cerulenin on yeast growth (yeast cells): additive effect | p-Ypk1(T662)/Ypk1, Mean (TORC2; acc1S1157A yeast): 1.9821 | p-Ypk1(T662)/Ypk1, Mean (TORC2; wt yeast): 2.002 | phosphorylation of Ypk1^T662 (TORC2 target residue) (TORC2; yeast): did not inhibit | mTORC1 activity in MCF-7 (mTORC1 [2]): downregulates | lysine malonylation of immunopurified yeast Fas1 ([3]; cerulenin-treated (10 μM, 2 h) vs control): malonylation increasing further | malonylation of immunopurified yeast Tor1 ([3]; control or cerulenin-treated (10 μM, 2 h)): unable to detect malonylation
